Patent US5053431A, “Derivatives of chrysophanol as topoisomerase II inhibitors” (Sloan-Kettering Institute For Cancer Research, priority 1990, dated 1991)
In brackets after ≈: the same amount, converted by molar mass. Like-named read-outs stand apart in the source and are kept apart here. Each block holds one molecule with its values, some of them ahead of it.

How the values were obtained:
[1] = system: mouse leukemia L1210 cells; experiment: Inhibition of L1210 cell growth; assay type: cell-based
Method: Preliminary biological data for inhibiting cell growth of murine L1210 leukemic cells and human acute promyelocytic leukemia cells (HL-60) during 72 h of exposure to the compounds are given in Table IV. The potencies for inhibiting [^3 H]TdR incorporation into DNA in HL-60 cells during the initial 30-min period are also given in Table IV. It is interesting to note that 1,8-di-O-methyl derivatives are uniformly devoid of activity against L1210 leukemic cells. […] The B/A ratios allow an indirect estimation of whether or not cytotoxicities exerted by these analogues are primarily due to initial inhibition of DNA synthesis. […] Whether these analogues, like m-AMSA, ellipticine, or anthracyclines, act by inhibiting DNA topoisomerase II remains to be explored. […] Our preliminary experiments indicate that the compounds arrest cells in the S and/or G2 phases of the cell cycle (unpublished results).

[2] = system: human leukemia HL-60 cells; experiment: HL-60 cell growth inhibition (72 h); assay type: cell-based; conditions: HL-60, 72 h, 0.2% DMSO, read-out: ID50, M [HL-60 cell growth (72 h)] (A)
Method: For cell growth inhibition studies, HL-60 cells […]) were grown in RPMI 1640 media at 37° C. in humidified 5% CO2 for 72 h. Viable cells were counted with the trypan blue exclusion method. The fractional inhibitions at four or five concentrations of compounds (in 0.2% DMSO) were analyzed with a median-effect plot (Chou, T.-C., et al., Adv. Enzyme Regul. 22:27 (1984)) by using a computer program. (Chou, J.; Chou, T.-C. Dose-Effect Analyses with Microcomputer. Quantitation of ID50, LD50, Synergism, Antagonism, Low-dose Risk, Receptor-Binding and Enzyme Kinetics; IBM-PC Series, Elsevier-Biosoft, Elsevier Scientific: Cambridge, U.K., (1986)). The median-effect concentration (ID50) was automatically determined for the x intercept of the median-effect plot. Cell growth in the absence of a compound and in the presence of DMSO was used as a control. DMSO (0.2%) alone inhibited cell growth 3.8±1.2% during the 72-h incubation period.

[3] = system: [^3 H]TdR incorporation into DNA in HL-60 cells; experiment: Inhibition of [3H]TdR incorporation into DNA in HL-60 cells (initial 30 min); assay type: cell-based, human; conditions: for IC50: HL-60, initial 30 min exposure, read-out: ID50, M (HL-60 TdR into DNA (B)); for B/A: ratio of ID50 for TdR incorporation (B) to ID50 for cell growth (A), HL-60
Method: For precursor incorporation studies, each compound at four to six concentrations (0.2% DMSO) was preincubated with HL-60 cells (2.5×10^6 /Ml) for 15 min prior to the addition of [^3 H-methyl]TdR (1 μCi, 0.15 nmol/mL) and was incubated for 30 min. […] The incorporation of radioactivity in DNA in the absence of an analogue in the presence of DMSO was used as a control.

[4] = Mus musculus, L1210, Table I, read-out: ID50 (the source's name)
[5] = Mus musculus, L1210, Table I, read-out: ID50 (μg/mL)
[6] = Table I, read-out: ID50 (the source's name)
[7] = Table IV, L1210, 72 h exposure, read-out: ID50, M (L1210 cell growth)
[8] = Mus musculus, Table IV, L1210, 72 h exposure, read-out: ID50, M (L1210 cell growth)

Molecule: COc1cc(OC)c2c(c1)C(=O)c1cc(CN(CCCl)CCCl)cc(OC)c1C2=O [IXb-3, 3-[N,N-bis(2-chloroethyl)amino]methyl-1,8,6-trimethoxy-9,10-anthraquinone]
ID50 ([1]; Table I): 1.30 µg/mL (≈ 2.87 µM)
IC50 [1, 6]: 2.66 µM
IC50 [1, 7]: 2.7 µM
IC50 [2]: 2 µM
IC50 [3]: 8.9 µM
B/A [3]: 4.5

Molecule: COc1cc(O)c2c(c1)C(=O)c1cc(CBr)cc(O)c1C2=O [VIb, 3-bromomethyl-1,8-dihydroxy-6-methoxy-9,10-anthraquinone]
IC50 [1, 8]: 59 µM
IC50 ([2]; Homo sapiens): 25 µM
IC50 ([3]; Homo sapiens, 0.5 h): 340 µM
B/A [3]: 13.6

Molecule: CCNCc1cc(OC)c2c(c1)C(=O)c1cccc(OC)c1C2=O [IXa-5, 3-(N-ethylamino)methyl-1,8-dimethoxy-9,10-anthraquinone]
IC50 [1, 4]: 3.59 µM
IC50 [1, 5]: 1.3 µg/mL
IC50 [1, 8]: 1.2 µM
IC50 ([2]; Homo sapiens): 48 µM
IC50 ([3]; Homo sapiens, 0.5 h): 29 µM
B/A [3]: 0.60

Molecule: COc1cccc2c1C(=O)c1c(OC)cc(CN(CCCl)CCCl)cc1C2=O [IXa-3, 3-[N,N-bis(2-chloroethyl)amino]methyl-1,8-dimethoxy-9,10-anthraquinone]
ID50 ([1]; Table I): 5.73 µg/mL (≈ 13.6 µM)
IC50 [1, 6]: 12.5 µM
IC50 [1, 7]: 13 µM
IC50 [3]: 14 µM
B/A [3]: 7.8

Molecule: NCc1cc(O)c2c(c1)C(=O)c1cccc(O)c1C2=O [XIa-8]
IC50 [1, 8]: 8.5 µM
IC50 ([2]; Homo sapiens): 11 µM
IC50 ([3]; Homo sapiens, 0.5 h): 25 µM
B/A [3]: 2.3

Molecule: 3-(Bromomethyl)-1(and 8)-Hydroxy-8(and 1)-Methoxy-9,10-anthraquinone [Va]
IC50 [1, 7]: 8.8 µM
IC50 [2]: 7.1 µM
B/A [3]: 1.7

Molecule: CCNCc1cc(OC)c2c(c1)C(=O)c1cc(OC)cc(OC)c1C2=O [IXb-5, 3-(N-ethylamino)methyl-1,6,8-trimethoxy-9,10-anthraquinone]
IC50 [1, 4]: 3.67 µM
IC50 [1, 5]: 1.44 µg/mL
IC50 [1, 8]: 9.8 µM
IC50 ([2]; Homo sapiens): 17 µM
IC50 ([3]; Homo sapiens, 0.5 h): 13 µM
B/A [3]: 0.76

Molecule: COc1cc(OC)c2c(c1)C(=O)c1cc(CBr)cc(OC)c1C2=O [IIIb, 3-bromomethyl-1,6,8-trimethoxy-9,10-anthraquinone]
IC50 [1, 8]: 0.68 µM
IC50 ([2]; Homo sapiens): 84 µM
IC50 ([3]; Homo sapiens, 0.5 h): 12 µM
B/A [3]: 0.14

Molecule: CNC(=O)OCCN(CCOC(=O)NC)Cc1cc(O)c2c(c1)C(=O)c1cccc(O)c1C2=O [XIa-4]
IC50 [1, 8]: > 18 µM
IC50 ([2]; Homo sapiens): 210 µM
IC50 ([3]; Homo sapiens, 0.5 h): 28 µM
B/A [3]: 0.13

Continued, in another order:

IC50 [1, 4]: 6.91 µM
IC50 [1, 5]: 2.9 µg/mL
IC50 ([2]; Homo sapiens): 7.9 µM
IC50 ([3]; Homo sapiens, 0.5 h): 4.2 µM
Molecule: CCN(CC)Cc1cc(OC)c2c(c1)C(=O)c1cc(OC)cc(OC)c1C2=O [IXb-1, 3-(N,N-diethylamino)methyl-1,6,8-trimethoxy-9,10-anthraquinone]
B/A [3]: 0.53

IC50 [1, 8]: 4.6 µM
IC50 ([2]; Homo sapiens): 4.1 µM
IC50 ([3]; Homo sapiens, 0.5 h): 25 µM
Molecule: CCCCNCc1cc(O)c2c(c1)C(=O)c1cccc(O)c1C2=O [XIa-10]
B/A [3]: 6.1

IC50 [1, 8]: 41 µM
IC50 ([2]; Homo sapiens): 6 µM
IC50 ([3]; Homo sapiens, 0.5 h): 58 µM
Molecule: COc1cc(OC)c2c(c1)C(=O)c1cc(C(Br)Br)cc(OC)c1C2=O [IVb, 6-(Dibromomethyl)-1,3,8-trimethoxy-9,10-anthraquinone]
B/A [3]: 9.7

IC50 [1, 8]: 28 µM
IC50 ([2]; Homo sapiens): 10 µM
IC50 ([3]; Homo sapiens, 0.5 h): 19 µM
Molecule: COc1cccc2c1C(=O)c1c(OC)cc(C)cc1C2=O [IIa, 1,8-Dimethoxy-3-methyl-9,10-anthraquinone]

IC50 [1, 8]: 1.6 µM
IC50 ([2]; Homo sapiens): 2.1 µM
IC50 ([3]; Homo sapiens, 0.5 h): 10 µM
Molecule: O=C1c2cccc(O)c2C(=O)c2c(O)cc(CN3CCCC3)cc21 [XIa-13]
B/A [3]: 4.8

IC50 [1, 8]: 0.44 µM
IC50 ([2]; Homo sapiens): 2.5 µM
IC50 ([3]; Homo sapiens, 0.5 h): 39 µM
Molecule: O=C1c2cccc(O)c2C(=O)c2c(O)cc(C(Br)Br)cc21 [VIIIa, 3-(Dibromomethyl)-1,8-dihydroxy-9,10-anthraquinone]
B/A [3]: 15.6
